# Data: patent US9670227B2, “Thienopyrimidine derivatives, a process for their preparation and pharmaceutical compositions containing them” (LES LABORATOIRES SERVIER, priority 2013, dated 2017)
# Where two headings read alike, the source gives them in different places.
# Molecular target: Mcl-1 protein (UniProtKB primary accession number: Q07820) (Homo sapiens, UniProt Q07820)
# Test: Inhibition of Mcl-1 by fluorescence polarisation, Method 1
# Assay type: binding
# Conditions: for IC50: read-out: IC50 (M) Mcl-1 FP; for percentage fluorescence polarisation inhibition (Mcl-1 FP), partial inhibitors: test compound at 10 uM
# Outline: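 An 11-point DMSO dilution of compound is mixed with buffer (10 mM HEPES, 150 mM NaCl, 0.05% Tween 20, pH 7.4) carrying 1 nM fluorescein-labelled ligand and 5 nM Mcl-1, final concentrations. Displacement is monitored by fluorescence polarisation.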
# [1] = fluorescence polarisation, Method 1, or Method 2
# [2] = Method 1, or Method 2 where the value is underlined (underlining not visible)
# [3] = fluorescence polarisation test, Method 2 values are underlined in the patent (underlining not visible here)
# Sequence of Mcl-1 protein (Q07820 whole entry): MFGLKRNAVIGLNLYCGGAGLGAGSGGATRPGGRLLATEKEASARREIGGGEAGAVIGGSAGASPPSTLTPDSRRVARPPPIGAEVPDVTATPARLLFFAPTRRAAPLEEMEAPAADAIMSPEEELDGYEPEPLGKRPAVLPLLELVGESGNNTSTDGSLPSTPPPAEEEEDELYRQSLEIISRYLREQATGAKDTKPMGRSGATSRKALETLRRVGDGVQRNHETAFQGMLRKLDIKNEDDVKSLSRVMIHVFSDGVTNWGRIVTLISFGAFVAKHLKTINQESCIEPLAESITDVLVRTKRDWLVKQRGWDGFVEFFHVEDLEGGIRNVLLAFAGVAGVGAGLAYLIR
smiles,measurement,setting,value
"Cc1c(-c2c(-c3ccc(F)cc3)sc3ncnc(OC(Cc4ccccc4OCc4ccnn4Cc4ccncc4)C(=O)O)c23)ccc(OCCN2CCN(C)CC2)c1Cl [Example 736, (2R)-2-{[(5Sa)-5-{3-chloro-2-methyl-4-[2-(4-methylpiperazin-1-yl)ethoxy]phenyl}-6-(4-fluorophenyl)thieno[2,3-d]pyrimidin-4-yl]oxy}-3-(2-{[1-(pyridin-4-ylmethyl)-1H-pyrazol-5-yl]methoxy}phenyl)propanoic acid]",IC50,[1],2.58e-09 M
"CCOC(=O)[C@@H](Cc1ccccc1OCc1ccnc(-c2ccccc2CO)n1)Oc1ncnc2sc(-c3ccc(F)cc3)c(-c3ccc(OCCN(C)C)c(Cl)c3C)c12 [Example 857, ethyl (2R)-2-{[(5Sa)-5-{3-chloro-4-[2-(dimethylamino)ethoxy]-2-methylphenyl}-6-(4-fluorophenyl)thieno[2,3-d]pyrimidin-4-yl]oxy}-3-[2-({2-[2-(hydroxymethyl)phenyl]pyrimidin-4-yl}methoxy)phenyl]propanoate]","percentage fluorescence polarisation inhibition (Mcl-1 FP), partial inhibitors",[2],77.85% @ 10 uM
"COc1ccccc1CC(Oc1ncnc2sc(-c3ccco3)c(-c3ccc(OC(=O)CN4CCN(C)CC4)c(Cl)c3C)c12)C(=O)O [Example 332, (2R)-2-{[(5Sa)-5-(3-chloro-2-methyl-4-{[(4-methylpiperazin-1-yl)acetyl]oxy}phenyl)-6-(furan-2-yl)thieno[2,3-d]pyrimidin-4-yl]oxy}-3-(2-methoxyphenyl)propanoic acid]",IC50,[3],1.3e-08 M
"COc1ccccc1-c1nccc(COc2ccccc2CC(Oc2ncnc3sc(-c4ccc(F)cc4)c(-c4ccc(OCCN5CCN(C)CC5)c(Cl)c4C)c23)C(=O)OC(C)OC(=O)C(C)C)n1 [Example 861, 1-[(2-methylpropanoyl)oxy]ethyl (2R)-2-{[(5Sa)-5-{3-chloro-2-methyl-4-[2-(4-methylpiperazin-1-yl)ethoxy]phenyl}-6-(4-fluorophenyl)thieno[2,3-d]pyrimidin-4-yl]oxy}-3-(2-{[2-(2-methoxyphenyl)pyrimidin-4-yl]methoxy}phenyl)propanoate]",IC50,"fluorescence polarisation test, Method 1, or Method 2 where the value is underlined (underlining not visible)",5.77e-07 M
"Cc1c(-c2c(-c3ccc(F)cc3)sc3ncnc(OC(Cc4ccccc4OCc4nncn4C)C(=O)O)c23)ccc(OCCN2CCN(C)CC2)c1Cl [Example 102, (2R)-2-{[(5Sa)-5-{3-chloro-2-methyl-4-[2-(4-methylpiperazin-1-yl)ethoxy]phenyl}-6-(4-fluorophenyl)thieno[2,3-d]pyrimidin-4-yl]oxy}-3-{2-[(4-methyl-4H-1,2,4-triazol-3-yl)methoxy]phenyl}propanoic acid]",IC50,[3],9.5e-09 M
"CCc1sc2ncnc(O[C@@H](Cc3cccc4ccoc34)C(=O)O)c2c1-c1ccc(OCCN2CCN(C)CC2)c(Cl)c1C [Example 462, (2S)-3-(1-benzofuran-7-yl)-2-[((5Ra)-5-{3-chloro-2-methyl-4-[2-(4-methylpiperazin-1-yl)ethoxy]phenyl}-6-ethylthieno[2,3-d]pyrimidin-4-yl)oxy]propanoic acid]",IC50,[1],3.7e-05 M
"CCOC(=O)[C@@H](Cc1ccccc1OCc1ccnc(-c2ccccc2OC)n1)Oc1ncnc2sc(-c3ccc(F)cc3)c(-c3ccc(OCCN4CCN(C)CC4)c(Cl)c3C)c12 [Example 830, ethyl (2R)-2-{[(5Ra)-5-{3-chloro-2-methyl-4-[2-(4-methylpiperazin-1-yl)ethoxy]phenyl}-6-(4-fluorophenyl)thieno[2,3-d]pyrimidin-4-yl]oxy}-3-(2-{[2-(2-methoxyphenyl)pyrimidin-4-yl]methoxy}phenyl)propanoate]","percentage fluorescence polarisation inhibition (Mcl-1 FP), partial inhibitors",[2],−11.9% @ 10 uM
"Cc1c(-c2c(-c3ccc(F)cc3)sc3ncnc(OC(Cc4ccccc4OCC(F)(F)F)C(=O)O)c23)ccc(OCCN2CCN(C)CC2)c1Cl [Example 3, (2R)-2-{[(5Sa)-5-{3-chloro-2-methyl-4-[2-(4-methylpiperazin-1-yl)ethoxy]phenyl}-6-(4-fluorophenyl)thieno[2,3-d]pyrimidin-4-yl]oxy}-3-[2-(2,2,2-trifluoroethoxy)phenyl]propanoic acid]",IC50,[3],8.9e-09 M
"Cc1c(-c2c(-c3ccc(F)cc3)sc3ncnc(OC(Cc4ccccc4OCc4ccnc(N5CCOCC5)n4)C(=O)O)c23)ccc(OCCN2CCN(C)CC2)c1Cl [Example 52, (2R)-2-{[(5Sa)-5-{3-chloro-2-methyl-4-[2-(4-methylpiperazin-1-yl)ethoxy]phenyl}-6-(4-fluorophenyl)thieno[2,3-d]pyrimidin-4-yl]oxy}-3-(2-{[2-(morpholin-4-yl)pyrimidin-4-yl]methoxy}phenyl)propanoic acid]",IC50,[3],5.6e-09 M
"CCOC(=O)[C@@H](Cc1ccccc1OCC(F)(F)F)Oc1ncnc2sc(-c3ccc(F)cc3)c(-c3ccc(OCCN4CCOCC4)c(Cl)c3C)c12 [Example 637, ethyl (2R)-2-{[(5Sa)-5-{3-chloro-2-methyl-4-[2-(morpholin-4-yl)ethoxy]phenyl}-6-(4-fluorophenyl)thieno[2,3-d]pyrimidin-4-yl]oxy}-3-[2-(2,2,2-trifluoroethoxy)phenyl]propanoate]","percentage fluorescence polarisation inhibition, Mcl-1 FP","partial inhibitors, @ 10 uM test compound",5.9% @ 10 uM
"CCc1sc2ncnc(OC(Cc3ccccc3)C(=O)O)c2c1-c1ccc(OCCN(C)C)cc1C [Example 409, (2R)-2-[((5Sa)-5-{4-[2-(dimethylamino)ethoxy]-2-methylphenyl}-6-ethylthieno[2,3-d]pyrimidin-4-yl)oxy]-3-phenylpropanoic acid]",IC50,[1],2e-07 M
"Cc1c(-c2c(-c3ccc(F)cc3)sc3ncnc(O[C@H](Cc4ccccc4OCc4ccnn4C)C(=O)O)c23)ccc(OCCN2CCN(C)CC2)c1Cl [Example 69, (2R)-2-{[(5Sa)-5-{3-chloro-2-methyl-4-[2-(4-methylpiperazin-1-yl)ethoxy]phenyl}-6-(4-fluorophenyl)thieno[2,3-d]pyrimidin-4-yl]oxy}-3-{2-[(1-methyl-1H-pyrazol-5-yl)methoxy]phenyl}propanoic acid]",IC50,[3],9.7e-08 M
"COC(=O)c1ccc(-c2sc3ncnc(OC(Cc4ccccc4OC)C(=O)O)c3c2-c2ccc(OCCN3CCN(C)CC3)c(Cl)c2C)o1 [Example 583, (2R)-2-[((5Sa)-5-{3-chloro-2-methyl-4-[2-(4-methylpiperazin-1-yl)ethoxy]phenyl}-6-[5-(methoxycarbonyl)furan-2-yl]thieno[2,3-d]pyrimidin-4-yl)oxy]-3-(2-methoxyphenyl)propanoic acid]",IC50,[1],1.1e-07 M
"COc1ccccc1CC(Oc1ncnc2sc(-c3cccc(OC(F)(F)F)c3)c(-c3ccc(OCCN4CCN(C)CC4)c(Cl)c3C)c12)C(=O)O [Example 555, (2R)-2-[((5Sa)-5-{3-chloro-2-methyl-4-[2-(4-methylpiperazin-1-yl)ethoxy]phenyl}-6-[3-(trifluoromethoxy)phenyl]thieno[2,3-d]pyrimidin-4-yl)oxy]-3-(2-methoxyphenyl)propanoic acid]",IC50,[1],3.9e-07 M
"Cc1c(-c2c(-c3ccco3)sc3ncnc(OC(Cc4ccccc4)C(=O)O)c23)ccc(OCCN2CCN(C)CC2)c1Cl [Example 504, (2R)-2-{[(5Sa)-5-{3-chloro-2-methyl-4-[2-(4-methylpiperazin-1-yl)ethoxy]phenyl}-6-(furan-2-yl)thieno[2,3-d]pyrimidin-4-yl]oxy}-3-phenylpropanoic acid]",IC50,[1],2.9e-08 M
"CCc1sc2ncnc(O[C@@H](Cc3ccccc3OC)C(=O)O)c2c1-c1ccc(O)c(Cl)c1C (single isomer, unassigned) [Example 679]",IC50,[1],8.9e-07 M
